This is an account of results in patent US20260327193A1, “INHIBITORS OF PLASMA KALLIKREIN” (Rezolute, Inc., priority 2022, published 2026).

Molecules are shown by their SMILES. pIC50: −log10 of the molar value.

Data set [1] has as its target T1, Plasma Kallikrein (Homo sapiens, UniProt P03952). In words: Plasma kallikrein protease inhibition assay, purified enzyme. In kind it is biochemical. The arrangement: NS0-derived Gly20-Ala638, with a C-terminal 60-His tag; 60-His (so in the source) (C); purchased R&D Systems 2497-SE; host or cells: Mouse myeloma cell line, NS0. As to conditions: 10 μM Z-FR-AMC substrate, 20-minute pre-incubation, pH 8.0/8.5, room temperature, read-out: Purified PKal IC50. The procedure:
(§1) Plasma kallikrein protease inhibition assay. Two methods for determining the IC50 of a test compound against Plasma Kallikrein are provided.
In the first method was used a reaction buffer composed of 25 mM Tris-HCl (pH 8.0), 100 mM NaCl (pH 8.5), 0.01% Brij35, and 1% DMSO (final). The enzyme used was Plasma Kallikrein (R&D Systems Cat #2497-SE; Recombinant Human Plasma Kallikrein, expressed in Mouse myeloma cell line, NS0-derived Gly20-Ala638, with a C-terminal 60-His tag. MW=70 kDa).
The enzyme was activated by dilution to 200 μg/mL in activation buffer (100 mM Tris, 10 mM CaCl2, 150 mM NaCl, pH 7.5 (TCN), and then combined with an equal volume of 20 μg/mL thermolysin to form a reaction buffer. Each test compound was then dissolved in DMSO and delivered into the reaction buffer. The reaction was initiated by delivering a substrate solution containing 10 μM Z-FR-AMC (Enzo Cat #P-139; AMC: 7-Amino-4-methylcoumarin) into the reaction well after a 20-minute pre-incubation period.
Measurement was conducted with En Vision (PE) with excitation and emission wavelengths of 355 nm and 460 nm, respectively. […]. The enzyme activities were monitored every 5 minutes as a time-course measurement of the increase in signal from fluorescently labeled peptide substrate for 120 minutes at room temperature.
Data was analyzed by taking slope*(signal/time) of the linear portion of measurements. Slope was calculated using Excel, and curve fits were performed using Prism software.

Data set [2] can be described thus: Caco-2 permeability assay. The data set is classed as in vitro ADME. As to conditions: human, 10 μM test compound, pH 7.4, 37° C., 120 minutes, direction of the value not given, read-out: Caco-2 Perm. The procedure:
Permeability Assay. A permeability study was conducted using Caco-2 cells (ECACC Cat. no. 09042001) seeded on cell inserts plate (Millicell, Cat #PSHT010R^5) at a density of 80,000 cells per well, and the cells were maintained for 18-21 days in culture medium (1×DMEM with 10% FBS, 0.1 mg/mL Penicillin/Streptomycin). The culture medium was changed every alternate day. Prior to the experiments, the integrity of the cellular monolayer was evaluated by measuring the TEER value using a volt ohm meter and STX100C96 electrode. Only monolayers with TEER values greater than 800 ohm·cm^2 in buffer after the first wash were used.
An assay buffer (HBSS with Ca+2 and Mg+2 buffered with 10 mM HEPES and 25 mM D-Glucose, pH-7.4) was used on apical side as well as on basolateral side.
An intermediate stock solution of a test compound was prepared in DMSO at a concentration of 1 mM in DMSO. This stock solution was spiked in the assay buffer to achieve a target test compound concentration of 10 μM. The organic content of final drug preparation was 1.0% v/v. The bidirectional permeability experiment was done in singlet and the sample analysis was done in duplicate.
The cultured cell monolayer was washed twice with assay buffer (0.4 mL and 0.8 mL was added to the apical and basolateral sides, respectively, of the culture plate), and then buffers from both compartments were discarded.
For the apical to basal (AP>BL) experiment, aliquots of 0.4 mL donor solution (assay buffer, pH 7.4 containing test compound) and 0.8 mL of receiver solutions (assay buffer, pH 7.4, only) were added to the apical and basolateral compartments, respectively. For the basal to apical (BL>AP) experiment, aliquots of 0.8 mL donor solution (assay buffer pH-7.4 containing test compound) and 0.4 mL of receiver solutions (assay buffer, pH-7.4) were added to the basolateral and apical compartments, respectively. The plate was then kept in an incubator at 37° C. for 120 minutes.
Control experiments with Propranolol (High Permeability), Atenolol (Low Permeability), Digoxin (High Efflux-Pgp substrate), and Digoxin+Verapamil (Pgp Inhibitor) in both directions (AP>BL and BL>AP) were performed in separate wells on the same experiment day.
After the completion of the transport experiment, the integrity of the cell monolayer was evaluated by measuring the Lucifer Yellow (LY) rejection. To do this, 400 μL of 10 μM LY was added to each well of the filter plate and incubated for 1 hour at 37° C. Subsequently, the samples were collected from the basolateral compartments, and the LY fluorescence was measured using an excitation wavelength of 485 nm and an emission wavelength of 530 nm. The percent LY rejection across the cell monolayer was calculated by measuring fluorescence in the receiver plate (basolateral compartment) compared to theoretical equilibrium standard.
The study samples (collected from apical and basolateral compartments after 120 min incubation) were analyzed by LCMS/MS, following which the Papp of the compound(s) was calculated in both apical to basal and basal to apical directions. Papp=([DBL]×VBL)/(A×t×[DAP]) where: [DBL]=final drug concentration on the basolateral side, VBL=volume of the basolateral compartment, A=surface area of the cell culture, t=total incubation time, and [DAP]=initial drug concentration on the apical side.

Data set [3] has as its target T1, Plasma Kallikrein. In words: Plasma kallikrein activity in pooled human plasma. In kind it is biochemical. The arrangement: Plasma Kallikrein activity was also measured in pooled human plasma; from tissue; host or cells: pooled human plasma. To be noted: Z-FR-AMC substrate, activated with 10% Actin FS solution, 10 minutes, read-out: Pooled Human Plasma PKal IC50. The procedure: as §1
Second, Plasma Kallikrein activity was also measured in pooled human plasma. First, a 10% Actin FS solution was prepared in assay buffer. Each test compound was dissolved in DMSO and delivered to the reaction mixture along with Z-FR-AMC substrate and pooled human plasma. The multi-well reaction plate was incubated for five minutes at room temperature. To initiate the reaction, the 10% Actin FS solution was added to each well, and kinetic measurements were taken at Ex/Em at 355/460 nm. The fluorescence signal was recorded every 30 seconds for a total of 10 minutes.

T1 sequence (P03952 391-638 limits assumed): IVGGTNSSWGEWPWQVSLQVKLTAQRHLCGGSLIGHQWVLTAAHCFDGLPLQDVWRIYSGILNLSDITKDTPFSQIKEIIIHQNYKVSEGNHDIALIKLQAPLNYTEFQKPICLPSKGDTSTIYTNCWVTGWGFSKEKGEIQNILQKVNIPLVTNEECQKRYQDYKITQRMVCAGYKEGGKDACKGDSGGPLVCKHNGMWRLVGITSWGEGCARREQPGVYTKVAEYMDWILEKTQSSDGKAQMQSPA
T1 sequence (P03952 20-390 partner limits assumed): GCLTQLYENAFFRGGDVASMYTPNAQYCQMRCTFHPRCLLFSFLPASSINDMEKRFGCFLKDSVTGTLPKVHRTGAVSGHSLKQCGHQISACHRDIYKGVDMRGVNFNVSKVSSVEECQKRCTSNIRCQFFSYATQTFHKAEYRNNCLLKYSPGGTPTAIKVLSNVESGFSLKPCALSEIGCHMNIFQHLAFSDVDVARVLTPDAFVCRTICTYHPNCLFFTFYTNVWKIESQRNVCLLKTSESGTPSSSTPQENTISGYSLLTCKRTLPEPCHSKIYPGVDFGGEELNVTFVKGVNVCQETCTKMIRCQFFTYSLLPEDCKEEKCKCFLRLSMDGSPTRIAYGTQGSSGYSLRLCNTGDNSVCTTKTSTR

Take `COCCc1ccc(Cn2ncc(C(=O)NCc3ccc(C(=N)N)cc3)c2COC)cc1` [Example 87, N-(4-carbamimidoylbenzyl)-1-(4-(2-methoxyethyl)benzyl)-5-(methoxymethyl)-1H-pyrazole-4-carboxamide]: the negative logarithm of the IC50 (pIC50) was 7.00 to 8.00 on Plasma Kallikrein [1] and greater than 7.00 at Plasma Kallikrein [3]. In addition, the Papp at 2 h, 10 µM in data set [2] was less than 2 ×10⁻⁶ cm/s.

Turning to `CC(C)(C#N)c1ccc(Cn2cc(C(=O)NCc3ccc(C(=N)N)cc3F)cn2)cc1` [Example 45, N-(4-carbamimidoyl-2-fluorobenzyl)-1-(4-(2-cyanopropan-2-yl)benzyl)-1H-pyrazole-4-carboxamide], the pIC50 was greater than 9.00 at Plasma Kallikrein [1] and greater than 7.00 on Plasma Kallikrein [3]. In addition, in data set [2], the Papp at 2 h, 10 µM was 2 to 10 ×10⁻⁶ cm/s.

Regarding `COc1cc(CNC(=O)c2cnn(Cc3ccc(C(C)(C)C#N)cc3)c2)cc(F)c1C(=N)N` [Example 48, N-(4-carbamimidoyl-3-fluoro-5-methoxybenzyl)-1-(4-(2-cyanopropan-2-yl)benzyl)-1H-pyrazole-4-carboxamide], the pIC50 was 7.00 to 8.00 at Plasma Kallikrein [1] and 6.00 to 7.00 on Plasma Kallikrein [3]. Moreover, the Papp at 2 h, 10 µM in data set [2] was less than 2 ×10⁻⁶ cm/s.

Consider `COCCc1ccc(Cn2cc(C(=O)NCc3ccc(C(=N)N)cc3)cn2)cc1` [Example 15, N-(4-carbamimidoylbenzyl)-1-(4-(2-methoxyethyl)benzyl)-1H-pyrazole-4-carboxamide], for which the negative logarithm of the IC50 (pIC50) is greater than 9.00 on Plasma Kallikrein [1] and greater than 7.00 on Plasma Kallikrein [3]. The Papp at 2 h, 10 µM in data set [2] fell in the range of 2 to 10 ×10⁻⁶ cm/s.

As to `N#Cc1cccc(Cc2ccc(Cn3cc(C(=O)NCc4ccc(C(=N)N)c(F)c4)cn3)cc2)c1` [Example 49, N-(4-carbamimidoyl-3-fluorobenzyl)-1-(4-(3-cyanobenzyl)benzyl)-1H-pyrazole-4-carboxamide], the pIC50 at Plasma Kallikrein [1] was greater than 9.00; on Plasma Kallikrein [3], 6.00 to 7.00. In data set [2], the Papp at 2 h, 10 µM was less than 2 ×10⁻⁶ cm/s.

For the molecule `CC(C)(C#N)c1ccc(Cn2cnc(C(=O)NCc3ccc(C(=N)N)cc3)c2)cc1` [Example 8, N-(4-carbamimidoylbenzyl)-1-(4-(2-cyanopropan-2-yl)benzyl)-1H-imidazole-4-carboxamide], the negative logarithm of the IC50 (pIC50) on Plasma Kallikrein [1] is 8.00 to 9.00. The Papp at 2 h, 10 µM in data set [2] is less than 2 ×10⁻⁶ cm/s.

Regarding `N#CCc1ccc(Cn2cc(C(=O)NCc3ccc(C(=N)N)cc3)cn2)cc1` [Example 1, N-(4-carbamimidoylbenzyl)-1-(4-(cyanomethyl)benzyl)-1H-pyrazole-4-carboxamide], the pIC50 at Plasma Kallikrein [1] is greater than 9.00; on Plasma Kallikrein [3] it was greater than 7.00. Besides, in data set [2], the Papp at 2 h, 10 µM is less than 2 ×10⁻⁶ cm/s.

Consider `N=C(N)c1ccc(CNC(=O)c2cnn(Cc3ccc(CC(N)=O)cc3)c2)cc1` [Example 18, 1-(4-(2-amino-2-oxoethyl)benzyl)-N-(4-carbamimidoylbenzyl)-1H-pyrazole-4-carboxamide], for which the pIC50 at Plasma Kallikrein [1] was 8.00 to 9.00. In addition, the Papp at 2 h, 10 µM in data set [2] is less than 2 ×10⁻⁶ cm/s.

`COCc1c(C(=O)NCc2ccc(C(=N)N)cc2)cnn1Cc1ccc(C(C)(C)C#N)cc1` [Example 82, N-(4-carbamimidoylbenzyl)-1-(4-(2-cyanopropan-2-yl)benzyl)-5-(methoxymethyl)-1H-pyrazole-4-carboxamide]: the pIC50 on Plasma Kallikrein [1] was 7.00 to 8.00; on Plasma Kallikrein [3], greater than 7.00.

Take `N#CCCc1ccc(Cn2cnc(C(=O)NCc3ccc(C(=N)N)cc3)c2)cc1` [Example 4, N-(4-carbamimidoylbenzyl)-1-(4-(2-cyanoethyl)benzyl)-1H-imidazole-4-carboxamide]: the pIC50 on Plasma Kallikrein [1] was greater than 9.00. For the same molecule, in data set [2], the Papp at 2 h, 10 µM is less than 2 ×10⁻⁶ cm/s.

Regarding `N=C(N)c1ccc(CNC(=O)c2cnn(Cc3ccc(CO)cc3)c2)cc1` [Example 2, N-(4-carbamimidoylbenzyl)-1-(4-(hydroxymethyl)benzyl)-1H-pyrazole-4-carboxamide], the pIC50 at Plasma Kallikrein [1] is 8.00 to 9.00; at Plasma Kallikrein [3], greater than 7.00.

`N#CCc1ccc(Cn2cc(C(=O)NCc3ccc(C(=N)N)c(F)c3)cn2)cc1` [Example 72, N-(4-carbamimidoyl-3-fluorobenzyl)-1-(4-(cyanomethyl)benzyl)-1H-pyrazole-4-carboxamide]: the pIC50 at Plasma Kallikrein [1] is 7.00 to 8.00; on Plasma Kallikrein [3], 6.00 to 7.00.

In the case of `N#CCc1ccccc1Cn1cc(C(=O)NCc2ccc(C(=N)N)cc2)cn1` [Example 70, N-(4-carbamimidoylbenzyl)-1-(2-(cyanomethyl)benzyl)-1H-pyrazole-4-carboxamide], the figures for the pIC50 on Plasma Kallikrein [1] and at Plasma Kallikrein [3] were 7.00 to 8.00 and 6.00 to 7.00, respectively.

Take `Cc1c(C(=O)NCc2ccc(C(=N)N)cc2)cnn1Cc1ccc(C(C)(C)C#N)cc1` [Example 81, N-(4-carbamimidoylbenzyl)-1-(4-(2-cyanopropan-2-yl)benzyl)-5-methyl-1H-pyrazole-4-carboxamide]: the values for the pIC50 at Plasma Kallikrein [1] and on Plasma Kallikrein [3] were greater than 9.00 and greater than 7.00, respectively.

Take `COCc1ccc(Cn2cc(C(=O)NCc3ccc(C(=N)N)cc3)cn2)cc1` [Example 71, N-(4-carbamimidoylbenzyl)-1-(4-(methoxymethyl)benzyl)-1H-pyrazole-4-carboxamide]: the pIC50 on Plasma Kallikrein [1] is greater than 9.00; at Plasma Kallikrein [3] it was greater than 7.00.

Regarding `N#CCc1ccc(Cn2cnc(C(=O)NCc3ccc(C(=N)N)cc3)c2)cc1` [Example 9, N-(4-carbamimidoylbenzyl)-1-(4-(cyanomethyl)benzyl)-1H-imidazole-4-carboxamide], the pIC50 on Plasma Kallikrein [1] was 8.00 to 9.00. In data set [2], the Papp at 2 h, 10 µM fell in the range of 2 to 10 ×10⁻⁶ cm/s.

Turning to `N#Cc1ccc(-c2ccc(Cn3cc(C(=O)NCc4ccc(C(=N)N)cc4)cn3)cc2)cc1` [Example 13, N-(4-carbamimidoylbenzyl)-1-((4′-cyano-[1,1′-biphenyl]-4-yl)methyl)-1H-pyrazole-4-carboxamide], the pIC50 is greater than 9.00 on Plasma Kallikrein [1] and greater than 7.00 at Plasma Kallikrein [3].

On to `CCCc1c(C(=O)NCc2ccc(C(=N)N)cc2)ncn1Cc1ccc(C(C)(C)C#N)cc1` [Example 84, N-(4-carbamimidoylbenzyl)-1-(4-(2-cyanopropan-2-yl)benzyl)-5-propyl-1H-imidazole-4-carboxamide], for which the pIC50 on Plasma Kallikrein [1] is less than 7.00; on Plasma Kallikrein [3], less than 6.00.
